According to patent US20260041690A1, “Treatment of Memory Loss with Phosphodiesterase Inhibitors” (Cyrano Therapeutics, Inc., priority 2023, published 2026):

How the values were obtained:
[1] = test system: memory loss associated with sleep deprivation; assay: Treatment of memory loss associated with sleep deprivation in a subject; type: in vivo; details: nasal spray, effective dose 3× daily in each naris
Excerpt: A subject is admitted to a clinic for a memory loss associated with sleep deprivation. The subject is prescribed a roflumilast composition in a nasal spray device described herein. The subject administers the nasal spray in an effective dose 3× daily in each naris. The nasal spray is characterized by a spray containing a D50 of about 15 μm to about 24 μm, a D90 of from about 30 μm to about […] and where less than about 3% of the droplets in the plume of a spray have a size of less than about 10 μm.

[2] = cited from earlier work

Which “memory retention after administration” value [1] does the source give for `O=C(Nc1c(Cl)cncc1Cl)c1ccc(OC(F)F)c(OCC2CC2)c1` [roflumilast] here?
Its value is “improved memory retention”.

For `Cn1c(=O)c2[nH]cnc2n(C)c1=O` [theophylline], which “solubility of theophylline in ethanol” value ([2]; in ethanol) is on record?
Its value is 14 to 15 mg/mL.

What about the “solubility of theophylline in water” value ([2]; in water) of the same molecule?
Its value is 7 to 8 mg/mL.
